From patent publication US4278686A, “Carbapenum derivatives, a process for their preparation and their use in pharmaceutical compositions and intermediates” (Beecham Group Limited, priority 1978, dated 1981)

Legend:
Type in all cases: cell-based
Citrobacter freundii E8 = experiment: standard MIC test, Citrobacter freundii E8 (DST agar+5% horse blood)
Enterobacter cloacae M 1 = experiment: standard MIC test, Enterobacter cloacae M 1 (DST agar+5% horse blood); details: M1
E. coli 0111 = experiment: standard MIC test, E. coli 0111 (DST agar+5% horse blood); details: Escherichia coli
Klebsiella aerogenes A = experiment: standard MIC test, Klebsiella aerogenes A (DST agar+5% horse blood)
Proteus mirabilis 0977 = experiment: standard MIC test, Proteus mirabilis 0977 (DST agar+5% horse blood)
Proteus morganii I 580 = experiment: standard MIC test, Proteus morganii I 580 (DST agar+5% horse blood); details: Morganella morganii, I580
Proteus rettgeri WM 16 = experiment: standard MIC test, Proteus rettgeri WM 16 (DST agar+5% horse blood); details: Providencia rettgeri, WM16
Proteus vulgaris WO 91 = experiment: standard MIC test, Proteus vulgaris WO 91 (DST agar+5% horse blood); details: WO91
Ps aeruginosa A = experiment: standard MIC test, Ps aeruginosa A (DST agar+5% horse blood)
[1] = tested on: Salmonella typhimurium CT10; experiment: standard MIC test, Salmonella typhimurium CT10 (DST agar+5% horse blood); details: Salmonella enterica
Serratia marcescens US20 = experiment: standard MIC test, Serratia marcescens US20 (DST agar+5% horse blood)
Shigella sonnei MB 11967 = experiment: standard MIC test, Shigella sonnei MB 11967 (DST agar+5% horse blood); details: MB11967
Staph. aureus Oxford = experiment: standard MIC test, Staph. aureus Oxford (DST agar+5% horse blood); details: Staphylococcus aureus
Staph. aureus Russell = experiment: standard MIC test, Staph. aureus Russell (DST agar+5% horse blood); details: Staphylococcus aureus
Staph. aureus 1517 = experiment: standard MIC test, Staph. aureus 1517 (DST agar+5% horse blood); details: Staphylococcus aureus
Strep. faecalis I = experiment: standard MIC test, Strep. faecalis I (DST agar+5% horse blood); details: Enterococcus faecalis

SMILES: CCSC(C)[C@H]1C(=O)N2C(C(=O)[O-])=C(S/C=C/NC(C)=O)C[C@H]12.[Na+] (stereo partly drawn) [e52, Sodium (5R,6R)-3-[(E)-2-acetamidoethenylthio]-6-(-1-ethylthio-ethyl)-7-oxo-1-azabicyclo[3.2.0]hept2-ene-2-carboxylate]
- MIC (Citrobacter freundii E8): 3.1 µg/mL
- MIC (Enterobacter cloacae M 1): 12.5 µg/mL
- MIC (E. coli 0111): 3.1 µg/mL
- MIC (Klebsiella aerogenes A): 0.8 µg/mL
- MIC (Proteus mirabilis 0977): 12.5 µg/mL
- MIC (Proteus morganii I 580): 12.5 µg/mL
- MIC (Proteus rettgeri WM 16): 6.25 µg/mL
- MIC (Proteus vulgaris WO 91): 6.25 µg/mL
- MIC (Ps aeruginosa A): 100 µg/mL
- MIC [1]: 6.25 µg/mL
- MIC (Serratia marcescens US20): 6.25 µg/mL
- MIC (Shigella sonnei MB 11967): 3.1 µg/mL
- MIC (Staph. aureus Oxford): 0.8 µg/mL
- MIC (Staph. aureus Russell): 0.8 µg/mL
- MIC (Staph. aureus 1517): 6.25 µg/mL
- MIC (Strep. faecalis I): 50 µg/mL
